# According to patent US8202885B2, “Bridged six-membered ring compounds” (Actelion Pharmaceuticals Ltd., priority 2007, dated 2012):
# Tested on: human Cav3.1 Cav3.2 or Cav3.3 channel
# Assay: In vitro assay T channel (FLIPR calcium fluorescence)
# Type: cell-based
# Conditions: HEK293 cells expressing human Cav3.1, Cav3.2 or Cav3.3; 10 mM Ca2+-induced fluo-4 fluorescence; determined up to 10 μM; read-out: T channel antagonistic activity IC50
# Procedure, shortened: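 HEK293 cells stably expressing human Cav3.1, Cav3.2 or Cav3.3 loaded with fluo-4 AM (3 μM), preincubated 3 min with antagonist, then stimulated with 10 mM Ca2+ in TEA-chloride/HEPES buffer pH 7.2. FLIPR fluorescence read every 2 s for 8 min; IC50 from peak area versus vehicle, tested up to 10 μM.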
row,IC50 [µM],SMILES
1,0.469,"CC(C)C(=O)O[C@@]1(CCN(C)CCCc2nc3c(C(F)(F)F)cc(C(F)(F)F)cc3[nH]2)C[C@H]2CC[C@@H]1C=C2c1ccccc1 (relative stereo) [Example 62A, rac-Isobutyric acid (1R*,2R*,4R*)-2-(2-{[3-(4,6-bis-trifluoromethyl-1H-benzoimidazol-2-yl)-propyl]-methyl-amino}-ethyl)-5-phenyl-bicyclo[2.2.2]oct-5-en-2-yl ester]"
2,1.44,"COCCOc1cccc2[nH]c(CCCN(C)CC[C@]3(OC(=O)C(C)C)C[C@H]4CC[C@@H]3C=C4c3ccccc3)nc12 (relative stereo) [Example 63A, rac-Isobutyric acid (1R*,2R*,4R*)-2-[2-({3-[4-(2-methoxy-ethoxy)-1H-benzoimidazol-2-yl]-propyl}-methyl-amino)-ethyl]-5-phenyl-bicyclo[2.2.2]oct-5-en-2-yl ester]"
3,0.914,"COc1cc(C)c2[nH]c(CCCN(C)CC[C@]3(OC(=O)C(C)C)C[C@H]4CC[C@@H]3C=C4c3ccccc3)nc2c1OC (relative stereo) [Example 64A, rac-Isobutyric acid (1R*,2R*,4R*)-2-(2-{[3-(4,5-dimethoxy-7-methyl-1H-benzoimidazol-2-yl)-propyl]-methyl-amino}-ethyl)-5-phenyl-bicyclo[2.2.2]oct-5-en-2-yl ester]"
4,0.68,"COc1ccc(C)c2nc(CCCN(C)CC[C@]3(OC(=O)C(C)C)C[C@H]4CCC[C@@H]3C=C4c3ccccc3)[nH]c12 (relative stereo) [Example 66A, rac-Isobutyric acid (1R*,5R*,6R*)-6-(2-{[3-(7-methoxy-4-methyl-1H-benzoimidazol-2-yl)-propyl]-methyl-amino}-ethyl)-8-phenyl-bicyclo[3.2.2]non-8-en-6-yl ester]"
5,0.839,"CC(C)C(=O)O[C@@]1(CCN(C)CCCc2nc3c(OC(F)(F)F)cccc3[nH]2)C[C@H]2CC[C@@H]1C=C2c1ccccc1 (relative stereo) [Example 68A, rac-Isobutyric acid (1R*,2R*,4R*)-2-(2-{methyl-[3-(4-trifluoromethoxy-1H-benzoimidazol-2-yl)-propyl]-amino}-ethyl)-5-phenyl-bicyclo[2.2.2]oct-5-en-2-yl ester]"
6,0.727,"COc1ccc(OC)c2[nH]c(CCCN(C)CC[C@]3(OC(=O)C(C)C)C[C@H]4CCC[C@@H]3C=C4c3ccccc3)nc12 (relative stereo) [Example 69A, rac-Isobutyric acid (1R*,5R*,6R*)-6-(2-{[3-(4,7-dimethoxy-1H-benzoimidazol-2-yl)-propyl]-methyl-amino}-ethyl)-8-phenyl-bicyclo[3.2.2]non-8-en-6-yl ester]"
7,1.45,"Cc1nc(CCCN(C)CC[C@]2(OC(=O)C(C)C)C[C@H]3CC[C@@H]2C=C3c2ccccc2)[nH]c1-c1ccccc1 (relative stereo) [Example 71A, rac-Isobutyric acid (1R*,2R*,4R*)-2-(2-{methyl-[3-(4-methyl-5-phenyl-1H-imidazol-2-yl)-propyl]-amino}-ethyl)-5-phenyl-bicyclo[2.2.2]oct-5-en-2-yl ester]"
8,2.29,"COc1ccccc1-c1cnc(CCCN(C)CC[C@]2(OC(=O)C(C)C)C[C@H]3CC[C@@H]2C=C3c2ccccc2)[nH]1 (relative stereo) [Example 72A, rac-Isobutyric acid (1R*,2R*,4R*)-2-[2-({3-[5-(2-methoxy-phenyl)-1H-imidazol-2-yl]-propyl}-methyl-amino)-ethyl]-5-phenyl-bicyclo[2.2.2]oct-5-en-2-yl ester]"
9,1.78,"CC(C)C(=O)O[C@@]1(CCN(C)CCCc2nc3ccccc3[nH]2)C[C@@H]2C=C[C@H]1CC2 (relative stereo) [Example 75A, rac-Isobutyric acid (1R*,2R*,4R*)-2-(2-{[3-(1H-benzoimidazol-2-yl)-propyl]-methyl-amino}-ethyl)-bicyclo[2.2.2]oct-5-en-2-yl ester]"
10,> 10,"CO[C@]1(c2ccccc2)C[C@H]2CC[C@@H]1C[C@@]2(O)CCN(C)CCCc1nc2ccccc2[nH]1 (relative stereo) [Example 76, rac-(1R*,2R*,4R*,5R*)-2-(2-{[3-(1H-Benzoimidazol-2-yl)-propyl]-methyl-amino}-ethyl)-5-methoxy-5-phenyl-bicyclo[2.2.2]octan-2-ol]"
11,2.12,"CO[C@]1(c2ccccc2)C[C@H]2CC[C@@H]1C[C@]2(CCN(C)CCCc1nc2ccccc2[nH]1)OC(=O)C(C)C (relative stereo) [Example 76A, rac-Isobutyric acid (1R*,2R*,4R*,5R*)-2-(2-{[3-(1H-benzoimidazol-2-yl)-propyl]-methyl-amino}-ethyl)-5-methoxy-5-phenyl-bicyclo[2.2.2]oct-2-yl ester]"
12,9.1,"CO[C@@]1(c2ccccc2)C[C@H]2CC[C@@H]1C[C@]2(O)CCN(C)CCCc1nc2ccccc2[nH]1 (relative stereo) [Example 77, rac-(1R*,2S*,4R*,5S*)-2-(2-{[3-(1H-Benzoimidazol-2-yl)-propyl]-methyl-amino}-ethyl)-5-methoxy-5-phenyl-bicyclo[2.2.2]octan-2-ol]"
13,2.63,"CO[C@@]1(c2ccccc2)C[C@H]2CC[C@@H]1C[C@@]2(CCN(C)CCCc1nc2ccccc2[nH]1)OC(=O)C(C)C (relative stereo) [Example 77A, rac-Isobutyric acid (1R*,2S*,4R*,5S*)-2-(2-{[3-(1H-benzoimidazol-2-yl)-propyl]-methyl-amino}-ethyl)-5-methoxy-5-phenyl-bicyclo[2.2.2]oct-2-yl ester]"
14,> 10,"CO[C@@]1(c2ccccc2)C[C@H]2CC[C@@H]1C[C@@]2(O)CCN(C)CCCc1nc2ccccc2[nH]1 (relative stereo) [Example 78, rac-(1R*,2R*,4R*,5S*)-2-(2-{[3-(1H-Benzoimidazol-2-yl)-propyl]-methyl-amino}-ethyl)-5-methoxy-5-phenyl-bicyclo[2.2.2]octan-2-ol]"
15,2.92,"CN(CCCc1nc2ccccc2[nH]1)CC[C@]1(O)C[C@H]2CC[C@@H]1C[C@@]21OCc2ccccc21 (relative stereo) [Example 79, rac-(1R*,2R*,4R*,5R*)-5-(2-{[3-(1H-Benzoimidazol-2-yl)-propyl]-methyl-amino}-ethyl)-3′H-spiro(bicyclo[2.2.2]octane-2,1′-isobenzofuran)-5-ol]"
16,9.47,"CC(C)C(=O)O[C@@]1(CCN(C)CCCc2nc3ccccc3[nH]2)C[C@H]2CC[C@@H]1C[C@@]21OCc2ccccc21 (relative stereo) [Example 79A, rac-Isobutyric acid (1R*,2R*,4R*,5R*)-5-(2-{[3-(1H-benzoimidazol-2-yl)-propyl]-methyl-amino}-ethyl)-3′H-spiro(bicyclo[2.2.2]octane-2,1′-isobenzofuran)-5-yl ester]"
17,3.71,"CN(CCCc1nc2ccccc2[nH]1)CC[C@]1(O)C[C@H]2CC[C@@H]1C[C@]21OCc2ccccc21 (relative stereo) [Example 80, rac-(1R*,2S*,4R*,5R*)-5-(2-{[3-(1H-Benzoimidazol-2-yl)-propyl]-methyl-amino}-ethyl)-3′H-spiro(bicyclo[2.2.2]octane-2,1′-isobenzofuran)-5-ol]"
18,4.18,"CC(C)C(=O)O[C@@]1(CCN(C)CCCc2nc3ccccc3[nH]2)C[C@H]2CC[C@@H]1C[C@]21OCc2ccccc21 (relative stereo) [Example 80A, rac-Isobutyric acid (1R*,2S*,4R*,5R*)-5-(2-{[3-(1H-benzoimidazol-2-yl)-propyl]-methyl-amino}-ethyl)-3′H-spiro(bicyclo[2.2.2]octane-2,1′-isobenzofuran)-5-yl ester]"
